In patent US9388162B2, “Substituted morphinans and the use thereof” (Purdue Pharma L.P., priority 2012, dated 2016):

How the values were obtained:
[1] = target: T1, μ-opioid receptors (Homo sapiens (Human), UniProt P35372); assay: μ-opioid receptor radioligand dose-displacement binding assay ([3H]-diprenorphine); conditions: mean ± SEM, read-out: Binding Affinity Opioid Receptor Ki (nM) [mean ± SEM] μ
Protocol: Radioligand dose-displacement binding assays for μ-opioid receptors used 0.3 nM [^3H]-diprenorphine (Perkin Elmer, Shelton, Conn.), with […] membrane protein/well in a final volume of 500 μl binding buffer (10 mM MgCl2, 1 mM EDTA, 5% DMSO, 50 mM HEPES, pH 7.4). Reactions were carried out in the absence or presence of increasing concentrations of unlabeled naloxone. All reactions were conducted in 96-deep well polypropylene plates for 2 hours at room temperature. Binding reactions were terminated by rapid filtration onto 96-well Unifilter GF/C filter plates (Perkin Elmer, Shelton, Conn.), presoaked in 0.5% polyethylenimine using a 96-well tissue harvester (Perkin Elmer, Shelton, Conn.) followed by performing three filtration washes with 500 μl of ice-cold binding buffer. Filter plates were subsequently dried at 50° C. for 2-3 hours. BetaScint scintillation cocktail (Perkin Elmer, Shelton, Conn.) was added (50 μl/well), and plates were counted using a Packard Top-Count for 1 min/well. The data were analyzed using the one-site competition curve fitting functions in GraphPad PRISM™ v. 3.0 or higher (San Diego, Calif.), or an in-house function for one-site competition curve-fitting.
(§1) The following tables provide results on the efficacy of binding and activity response of exemplified Compounds of the Invention at the μ- and κ-opioid receptors. In TABLE 3, binding affinity of certain Compounds of the Invention to the μ- and κ-opioid receptors was determined as described above. In TABLE 4, activity response of certain Compounds of the Invention to the μ- and κ-opioid receptors was determined as described above for functional assays using HEK-293 cells. In TABLE 5, activity response of certain Compounds of the Invention to the μ- and κ-opioid receptors was determined as described above using U-2 OS cells.

[2] = target: T2, κ opioid receptor (Homo sapiens (Human), UniProt P41145); assay: κ-opioid receptor [35S]GTPγS functional assay, HEK-293 cells; type: biochemical; conditions: κ GTP; for EC50: read-out: Activity Response κ EC50 (nM) [mean ± SEM]; for Emax: relative to U69,593, read-out: Activity Response κ Emax (%)
Protocol: (§2) Membranes from HEK-293 cells, CHO or U-2 OS cells expressing the recombinant human kappa opioid receptor (κ) were prepared by lysing cells in ice cold hypotonic buffer (2.5 mM MgCl2, 50 mM HEPES, pH 7.4) (10 mL/10 cm dish) followed by homogenization with a tissue grinder/Teflon pestle. Membranes were collected by centrifugation at 30,000×g for 15 min at 4° C. and pellets were resuspended in hypotonic buffer to a final concentration of 1-3 mg/mL. Protein concentrations were determined using the BioRad protein assay reagent with bovine serum albumen as standard. Aliquots of κ receptor membranes were stored at −80° C.
Functional [^35S]GTPγS binding assays were conducted as follows. κ opioid receptor membrane solution was prepared by sequentially adding final concentrations of 0.026 μg/μl κ membrane protein (in-house), 10 μg/mL saponin, 3 μM GDP and 0.20 nM [^35S]GTPγS to binding buffer (100 mM NaCl, 10 mM MgCl2, 20 mM HEPES, pH 7.4) on ice. The prepared membrane solution (190 μl/well) was transferred to 96-shallow well polypropylene plates containing 10 μl of 20× concentrated stock solutions of agonist prepared in DMSO. Plates were incubated for 30 min at a temperature of about 25° C. with shaking. Reactions were terminated by rapid filtration onto 96-well Unifilter GF/B filter plates (Perkin Elmer, Shelton, Conn.) using a 96-well tissue harvester (Packard) and followed by three filtration washes with 200 μl ice-cold binding buffer (10 mM NaH2PO4, 10 mM Na2HPO4, pH 7.4). Filter plates were subsequently dried at 50° C. for 2-3 hours. Fifty μl/well scintillation cocktail (Perkin Elmer, Shelton, Conn.) was added and plates were counted in a Packard Top-Count for 1 min/well.
κ GTP EC50 is the concentration of a compound providing 50% of the maximal response for the compound at a κ receptor.
κ GTP Emax (%) is the maximal effect elicited by a compound relative to the effect elicited by U69,593.
as §1, with “In” for “The following tables provide results on the efficacy of binding and activity response of exemplified Compounds of the Invention at the μ- and κ-opioid receptors. In”

[3] = target: T1, μ-opioid receptors; assay: μ-opioid receptor [35S]GTPγS functional assay, HEK-293 cells; type: biochemical; conditions: μ GTP; for EC50: read-out: Activity Response μ EC50 (nM) [mean ± SEM]; for Emax: relative to DAMGO, read-out: Activity Response μ Emax (%)
[4] = target: recombinant human kappa opioid receptor (κ) (Homo sapiens (Human), UniProt P41145); assay: κ-opioid receptor radioligand dose displacement binding assay ([3H]-U69,593); conditions: mean ± SEM, read-out: Binding Affinity Opioid Receptor Ki (nM) [mean ± SEM] κ
Protocol: as §2
Radioligand dose displacement assays used 0.4 nM [^3H]-U69,593 (GE Healthcare, Piscataway, N.J.; 40 Ci/mmole) with 15 μg membrane protein (recombinant κ opioid receptor expressed in HEK 293 cells; in-house prep) in a final volume of 200 μl binding buffer (5% DMSO, 50 mM Trizma base, pH 7.4). Non-specific binding was determined in the presence of 10 μM unlabeled naloxone or U69,593. All reactions were performed in 96-well polypropylene plates for 1 hour at a temperature of about 25° C. Binding reactions were terminated by rapid filtration onto 96-well Unifilter GF/C filter plates (Perkin Elmer, Shelton, Conn.) presoaked in 0.5% polyethylenimine (Sigma). Harvesting was performed using a 96-well tissue harvester (Perkin Elmer, Shelton, Conn.) followed by five filtration washes with 200 μl ice-cold binding buffer. Filter plates were subsequently dried at 50° C. for 1-2 hours. Fifty μl/well scintillation cocktail (Perkin Elmer, Shelton, Conn.) was added and plates were counted in a Packard Top-Count for 1 min/well.
as §1

[5] = target: T1, μ-opioid receptors; assay: μ-opioid receptor [35S]GTPγS functional assay, U-2 OS cells; type: biochemical; conditions: μ GTP; for EC50: read-out: Activity Response μ EC50 (nM) [mean ± SEM]; for Emax: relative to DAMGO, read-out: Activity Response μ Emax (%)
[6] = target: T2, κ opioid receptor; assay: κ-opioid receptor [35S]GTPγS functional assay, U-2 OS cells; type: biochemical; conditions: κ GTP; for EC50: read-out: Activity Response κ EC50 (nM) [mean ± SEM]; for Emax: relative to U69,593, read-out: Activity Response κ Emax (%)

SMILES	Ki [1] [nM]	EC50 [2] [nM]	Emax [2] [%]	EC50 [3] [nM]	Emax [3] [%]	Ki [4] [nM]	EC50 [5] [nM]	Emax [5] [%]	EC50 [6] [nM]	Emax [6] [%]
COc1ccc2c(c1)[C@]13CCN(CC4CC4)[C@H](C2)[C@@H]1C[C@@H](C(C)C)C(=O)C3 [Compound 72, (4bS,7S,8aR,9R)-11-(cyclopropylmethyl)-7-isopropyl-3-methoxy-8,8a,9,10-tetrahydro-5H-9,4b-(epiminoethano)phenanthren-6(7H)-one]	476 ± 118	1050 ± 193	69.3 ± 6.77	212 ± 48.8	101 ± 5.55	82.9 ± 1.96	270 ± 48.2	60 ± 6	303 ± 40.4	102 ± 2.52
CC(C)[C@@H]1C[C@H]2[C@H]3Cc4ccc(O)cc4[C@@]2(CCN3CC2CC2)CC1=O [Compound 73, (4bS,7S,8aR,9R)-11-(cyclopropylmethyl)-3-hydroxy-7-isopropyl-8,8a,9,10-tetrahydro-5H-9,4b-(epiminoethano)phenanthren-6(7H)-one]	1.98 ± 0.44	6.07 ± 1.92	61 ± 8.62	2.85 ± 0.6	53.2 ± 5.71	0.32 ± 0.11	0.84 ± 0.13	28.3 ± 4.06	1.92 ± 0.28	101 ± 3.38
CC(C)[C@H]1C[C@H]2[C@H]3Cc4ccc(O)cc4[C@@]2(CCN3CC2CC2)CC1=O [Compound 74, (4bS,7R,8aR,9R)-11-(cyclopropylmethyl)-3-hydroxy-7-isopropyl-8,8a,9,10-tetrahydro-5H-9,4b-(epiminoethano)phenanthren-6(7H)-one]	7.42 ± 2.25	3.52 ± 1	34 ± 5.86	2.31 ± 0.6	90.3 ± 3.84	0.33 ± 0.041	3.66 ± 0.82	46 ± 11	1.42 ± 0.15	91.3 ± 3.76
